Assays:
[1] = In vitro metabolic stability in mouse S9; details: for metabolic stability of positive controls: S9 and microsomes, in-house limits
Protocol: (§1) For metabolic stability samples, extractions (50 μl) were taken at each pre-determined time point and mixed with 300 μl of ice-cold methanol containing IS in a 1.5 ml centrifuge tube. Then, samples were vortexed for 2 min and centrifuged (17,950g) for 10 min. An aliquot (100 μl) of the clear supernatant was transferred into an autosampler vial and 2 μl was injected into the LC–MS/MS system.
Metabolic stability was assessed using mouse, rat and human liver microsomes, and mouse liver S9 fractions (XenoTech, LLC, Lenexa, KS, USA) were used for the in vitro assessment of phase I and II metabolism. Incubation with S9 fractions was performed in triplicate, at 2 μM SF2523 concentration as described in our previous report ([Aldhafiri et al., 2020]; [Bala et al., 2020]). The reaction was started by adding 2 μl of SF2523 at a final concentration of 2 μM. Serial samples (50 μl) were collected at selected time intervals and quenched with 300 μl of methanol spiked with 10 μl of IS (0.5 μg/ml). All of the samples were vortexed and centrifuged at 13,000g for 15 min, and the supernatant was collected and transferred to an autosampler vial and injected (2 μl) onto the LC–MS/MS system. Testosterone 7-hydroxycoumarin and diclofenac were used as positive controls to ensure that S9, microsomes and the incubation conditions were appropriate to conduct metabolism studies.
The S9 fraction and microsomal stability were expressed as the percentage of drug remaining at each time. The in vitro metabolic elimination rate constant was determined from the first-order plot of a natural logarithm of the area ratio vs. time. The slope of the linear regression equation was used to determine the elimination rate constant k (min^−1).

[2] = Stability of SF2523 in mouse plasma under storage conditions; type: in vitro ADME
Protocol: Stability in mouse plasma was assessed in triplicate at LQC and HQC concentrations at room temperature (6 h, 25 ± 5°C), and after three freeze–thaw cycles (−80°C) and long-term storage (60 days at −80°C). Additionally, the 24 h autosampler stability of extracted samples (at 4°C) was determined.

[3] = Blood-to-plasma ratio in mouse blood; type: in vitro ADME
Protocol: At different time points (0, 30 and 60 min) aliquots (50 μl) were collected for blood analysis, and an additional sample (120 μl) was transferred to a microcentrifuge tube and centrifuged at 4,000g for 10 min at 4°C to separate 50 μl plasma for analysis. The whole blood and plasma samples were further processed by SPE as described above. The analyte peak area ratios were used to calculate the blood-to-plasma (B/P) ratio using Equation (4).
(4) ∕PBration=Analyte concentration in whole blood/Analyte concentration in plasma

[4] = In vitro metabolic stability in human liver microsomes; type: in vitro ADME; details: read-out: in vitro t1/2
Protocol: as §1
(§2) Metabolic stability was assessed using mouse, rat and human liver microsomes, and mouse liver S9 fractions (XenoTech, LLC, Lenexa, KS, USA) were used for the in vitro assessment of phase I and II metabolism. Incubation with S9 fractions was performed in triplicate, at 2 μM SF2523 concentration as described in our previous report ([Aldhafiri et al., 2020]; [Bala et al., 2020]). The reaction was started by adding 2 μl of SF2523 at a final concentration of 2 μM. Serial samples (50 μl) were collected at selected time intervals and quenched with 300 μl of methanol spiked with 10 μl of IS (0.5 μg/ml). […]
(§3) The S9 fraction and microsomal stability were expressed as the percentage of drug remaining at each time. The in vitro metabolic elimination rate constant was determined from the first-order plot of a natural logarithm of the area ratio vs. time. […]

[5] = test system: mouse plasma proteins; experiment: Plasma protein binding by rapid equilibrium dialysis; type: in vitro ADME
Protocol: (§4) The sample contained mouse plasma spiked with 1 or 10 μM SF2523 and was added to the sample chamber. The rapid equilibrium dialysis kit top was then sealed and incubated at 37°C on an orbital shaker at 100 rpm for 5 h.
(§5) At pre-determined times, aliquots (40 μl) were removed from the sample, and buffer chambers and mixed with an equal volume of buffer or blank plasma, respectively. The samples were further processed by SPE as described above and analyzed by LC–MS/MS. The stability, equilibrium, device recovery and PPB were calculated using the following equations ([Lindup & Orme, 1981]): (5) %Remaining at5h=[…]/Concentration0h×100 (6) %Equilibrium=Concentrationreceiver cell/Concentrationdonor cell×100 (7) %Device Recovery=Concentrationreceiver cell+Concentrationdonor cell/Concentration0h×100 (8) %Bound=Concentrationdonor cell−Conentrationreceiver cell/Concentrationdonor cell×100

[6] = as above; type: in vitro ADME, mouse; details: mouse plasma, mean, n = 3
Protocol: as §4, §5

[7] = In vitro metabolic stability in human S9; type: in vitro ADME; details: S9 fraction; human S9, 2 μM; read-out: in vitro t1/2
[8] = Gastrointestinal fluid stability (SGF, SIF, phosphate buffer); type: physicochemical; details: 37°C
Protocol: Simulated GIs were prepared according to United States Pharmacopoeia (USP) specifications. Briefly, SF2523 at 10 μM concentration was incubated with simulated gastric fluid (SGF). Simulated intestinal fluid (SIF) and phosphate buffer (100 mM, pH 7.4) were kept at 37°C in a shaking water bath, each in triplicate. Samples (100 μl) were collected at 0, 15, 30, 60 and 120 min. Immediately after sample collection, 5 vols of methanol containing IS were added and samples were prepared for analysis. Stability was determined as the percentage of parent compound detected at each time point relative to the concentration at 0 min in buffer (100%) ([Wang et al., 2015]).

[9] = In vitro metabolic stability in mouse liver microsomes; type: in vitro ADME; details: read-out: in vitro t1/2
Protocol: as §1, §2, §3

[10] = Metabolite identification in mouse S9 fraction; type: in vitro ADME; details: phase I and II, 35 min gradient LC–MS/MS
Protocol: For metabolite identification, mass shift analyses were performed using the same LC–MS/MS system. […] The parent drug MS/MS spectrum was used as a template model for structure identification and assuming that the fragmentation pattern of the parent drug from the production spectrum was used to deduce the structures of the metabolites ([Francis et al., 1999]). The data acquisition for the metabolite identification study was conducted using Labsolution software (Shimadzu Scientific Instruments, Columbia, MD, USA, version 5.8).

[11] = Stability of SF2523 in mouse plasma under storage conditions; type: in vitro ADME; details: nominal 200 ng/ml, mean ± SD, n = 3, read-out: Stability recovery, Accuracy (%)

## O=c1ccc2ccc(O)cc2o1 [7-hydroxycoumarin]
[1]
  metabolic stability of positive controls: within acceptable in-house limits

## O=c1cc(N2CCOCC2)oc2c(-c3ccc4c(c3)OCCO4)csc12 [SF2523]
[2]; mouse plasma, Bench-top stability for 8 h at (21°C, 6 h), nominal 0.3 ng/ml, mean ± SD, n = 3, read-out: Stability recovery, Accuracy (%)
  recovery at 6 h, 0.3 ng/ml: 95.8 ± 4.03%
[2]; mouse plasma, Bench-top stability for 8 h at (21°C, 6 h), nominal 375 ng/ml, mean ± SD, n = 3, read-out: Stability recovery, Accuracy (%)
  recovery at 6 h, 375 ng/ml: 111.2 ± 0.21%
[2]; mouse plasma, Long-term stability (60 days, −80°C), nominal 0.3 ng/ml, mean ± SD, n = 3, read-out: Stability recovery, Accuracy (%)
  recovery at 60 days, 0.3 ng/ml: 103 ± 2.62%
[2]; mouse plasma, Long-term stability (60 days, −80°C), nominal 375 ng/ml, mean ± SD, n = 3, read-out: Stability recovery, Accuracy (%)
  recovery at 60 days, 375 ng/ml: 97.25 ± 0.35%
[2]; mouse plasma, Three freeze-thaw cycles (−80°C to room temperature), nominal 0.3 ng/ml, mean ± SD, n = 3, read-out: Stability recovery, Accuracy (%)
  recovery at 0.3 ng/ml: 92.9 ± 12.3%
[2]; mouse plasma, Three freeze-thaw cycles (−80°C to room temperature), nominal 375 ng/ml, mean ± SD, n = 3, read-out: Stability recovery, Accuracy (%)
  recovery at 375 ng/ml: 113.7 ± 0.14%
[2]; mouse, extracted plasma samples, Autosampler stability (4°C, 24 h), nominal 0.3 ng/ml, mean ± SD, n = 3, read-out: Stability recovery, Accuracy (%)
  recovery at 24 h, 0.3 ng/ml: 105 ± 5.16%
[2]; mouse, extracted plasma samples, Autosampler stability (4°C, 24 h), nominal 375 ng/ml, mean ± SD, n = 3, read-out: Stability recovery, Accuracy (%)
  recovery at 24 h, 375 ng/ml: 103 ± 1.13%
[2]; under a variety of storage conditions
  parent drug remaining: > 90%
[3]; At 0.1 μg/ml, time point 0 min
  B/P: 0.85
[3]; At 0.1 μg/ml, time point 30 min
  B/P: 0.98
[3]; At 0.1 μg/ml, time point 60 min
  B/P: 0.83
[3]; At 1 μg/ml, time point 0 min
  B/P: 0.85
[3]; At 1 μg/ml, time point 30 min
  B/P: 0.93
[3]; At 1 μg/ml, time point 60 min
  B/P: 0.93
[3]; whole blood, 0.1 μg/ml, overall value, read-out: blood-to-plasma ratio (B/P)
  blood plasma ratio at 0.1 μg/ml: 0.88
[3]; whole blood, 1 μg/ml, overall value, read-out: blood-to-plasma ratio (B/P)
  blood plasma ratio at 1 μg/ml: 0.9
[1]; mouse, liver S9 fraction
  half-life at 2 μM: < 2 min
[4]
  half-life at 2 μM: < 2 min
[5]; mouse plasma, 37°C, 5 h incubation, mean, n = 3
  Percentage remaining at 5 h (stability): 99.06%
[5]; mouse plasma, both tested concentrations
  bound to mouse plasma proteins: > 95%
[5]; rapid equilibrium dialysis device, mouse plasma, mean, n = 3
  Percentage device recovery: 98.58%
[6]; at 1 µM, read-out: Percentage plasma protein bound (converted)
  fraction unbound at 5 h, 1 µM: 0.0418
[6]; at 10 µM, read-out: Percentage plasma protein bound (converted)
  fraction unbound at 5 h, 10 µM: 0.0327
[6]; mouse, mouse plasma in rapid equilibrium dialysis device, rapid equilibrium dialysis device, read-out: Percentage device recovery
  recovery at 5 h: > 90%
[7]
  half-life at 2 μM: < 2 min
[8]; phosphate buffer pH 7.4, 10 μM, after 2 h
  parent remaining: > 90%
[8]; simulated gastric fluid (SGF), pH 1.2, 10 μM, after 1 h
  parent remaining: > 90%
[8]; simulated intestinal fluid (SIF), pH 6.8, 10 μM, after 2 h
  parent remaining: > 90%
[9]
  half-life at 2 μM: < 2 min
[10]
  number of metabolites identified: Seven
[11]; mouse plasma, Bench-top stability for 8 h at (21°C, 6 h)
  recovery at 6 h, 200 ng/ml: 107 ± 4.5%
[11]; mouse plasma, Long-term stability (60 days, −80°C)
  recovery at 60 days, 200 ng/ml: 103 ± 11.2%
[11]; mouse plasma, Three freeze-thaw cycles (−80°C to room temperature)
  recovery at 200 ng/ml: 101 ± 5%
[11]; mouse, extracted plasma samples, Autosampler stability (4°C, 24 h)
  recovery at 24 h, 200 ng/ml: 101 ± 1.77%

## O=C(O)Cc1ccccc1Nc1c(Cl)cccc1Cl [diclofenac]
[1]
  metabolic stability of positive controls: within acceptable in-house limits

## CC(C)NCC(O)COc1cccc2ccccc12 (stereo not drawn) [propranolol, reference compound]
[5]; compared with limits reported in the literature (Barber et al., 1978)
  plasma protein binding of positive control drugs: within the acceptable limits

## C[C@]12CC[C@H]3[C@@H](CCC4=CC(=O)CC[C@@]43C)[C@@H]1CC[C@@H]2O [testosterone]
[1]
  metabolic stability of positive controls: within acceptable in-house limits
